# Measured values reported in patent US20230096766A1, “AMINO ACID HAVING FUNCTIONAL GROUP CAPABLE OF INTERMOLECULAR HYDROGEN BONDING, PEPTIDE COMPOUND CONTAINING SAME AND METHOD FOR PRODUCTION THEREOF” (Chugai Seiyaku Kabushiki Kaisha, priority 2018, published 2023).
# *1 amine or outer side, *2 acyl side, *3 side chain or, on linkers, in order; H or OH if unused. Where a SMILES comes first, the peptide text is derived from it. Bridges are numbered along the chain shown (N, C = ends). [ ]: non-standard residue; d: D form. The star is where a group is joined. ξ: configuration not given here. NMeAbu(3,3-F2-piperidino) = CN[C@@H](CCN1CCCC(F)(F)C1)C(=O)O; dhPhe(4-CONHMe,3-OMe) = CNC(=O)c1ccc(CC[C@@H](N)C(=O)O)cc1OC; Phe(3-CONHMe,4-OMe) = CNC(=O)c1cc(C[C@H](N)C(=O)O)ccc1OC; X10 = CN([C@@H](CCN1CCC(F)(F)CC1)C(=O)[*:2])[*:1]; X11 = CNC(=O)c1ccc(CCN(CC(=O)[*:2])[*:1])cc1OC; NMePhe(3-Cl) = CN[C@@H](Cc1cccc(Cl)c1)C(=O)O; ξGln(SO2Me) = CS(=O)(=O)NC(=O)CCC(N)C(=O)O; Tyr(3-OMe) = COc1cc(C[C@H](N)C(=O)O)ccc1O; NMehPhe = CN[C@@H](CCc1ccccc1)C(=O)O; X6 = O=C([C@H](CCCCO)N[*:1])[*:2]; NMeF = CN[C@@H](Cc1ccccc1)C(=O)O; NMeGABA = CN(CCCC(=O)[*:2])[*:1]; NMeI = CC[C@H](C)[C@H](NC)C(=O)O; NMeβAla = CN(CCC(=O)[*:2])[*:1]; ξThr(3R) = C[C@@H](O)C(N)C(=O)O; NMeD = CN[C@@H](CC(=O)O)C(=O)O; NMeL = CN[C@@H](CC(C)C)C(=O)O; NMeV = CN[C@H](C(=O)O)C(C)C; NMeAbu = CC[C@H](NC)C(=O)O; NMeA = CN[C@@H](C)C(=O)O; Piperidide = C1CCN(*)CC1; CH2CMe2OH = CC(C)(O)C*; X8 = C1COC[C@@H](C*)N1; NBuGly = CCCCNCC(=O)O; Isopentyl = CC(C)CC*; NPrGly = CCCNCC(=O)O; Propyl(3-OH) = OCCC*; Ethyl(2-OH) = OCC*; Sar = CNCC(=O)O; tBu = CC(C)(C)*
# Assay: in vitro
# Conditions: human, Caco-2, Caco-2
row,SMILES,Papp [×10⁻⁶ cm/s]
1,"CC(C)CCOC[C@@H]1NC(=O)[C@H](CCN2CCCC(F)(F)C2)N(C)C(=O)[C@H](Cc2ccccc2)N(C)C(=O)CN(C)C(=O)[C@H]([C@@H](C)O)NC(=O)[C@H](CC(C)C)N(C)C(=O)[C@H](CC(C)C)NC(=O)[C@H](Cc2ccccc2)N(C)C(=O)CN(C)C(=O)C[C@@H](C(=O)N2CCCCC2)NC(=O)[C@H](CC(C)C)N(C)C1=O [pd393] ([Sar][NMeF]L[NMeL]T[Sar][NMeF][NMeAbu(3,3-F2-piperidino)]S(Isopentyl)[NMeL]D-Piperidide; lactam N-11)",2.8
2,CCCCN1CC(=O)N(C)[C@@H](C(C)C)C(=O)N[C@H](C(=O)N2CCCCC2)CC(=O)N(C)[C@@H](CC(C)C)C(=O)NC(CCC(=O)NS(C)(=O)=O)C(=O)N(C)[C@@H](CC(C)C)C(=O)N(C)[C@@H](Cc2ccccc2)C(=O)N[C@@H](CC(C)C)C(=O)N(C)[C@@H](Cc2ccccc2)C(=O)N(C)[C@@H](CC(C)C)C(=O)N[C@@H]([C@@H](C)O)C1=O (stereo partly drawn) [pd62] ([NMeL][ξGln(SO2Me)][NMeL][NMeF]L[NMeF][NMeL]T[NBuGly][NMeV]D-Piperidide; lactam N-11),< 0.13
3,"CC(C)C[C@@H]1NC(=O)[C@H](C)N(C)C(=O)C[C@@H](C(=O)N2CCCCC2)NC(=O)[C@H](C(C)C)N(C)C(=O)CN(C)C(=O)[C@H]([C@@H](C)O)NC(=O)[C@H](CCN2CCCC(F)(F)C2)N(C)C(=O)[C@H](Cc2ccccc2)N(C)C(=O)[C@H](CC(C)C)NC(=O)[C@H](Cc2ccccc2)N(C)C(=O)[C@H](CC(C)C)N(C)C1=O [pd391] ([NMeA]L[NMeL][NMeF]L[NMeF][NMeAbu(3,3-F2-piperidino)]T[Sar][NMeV]D-Piperidide; lactam N-11)",2.4
4,CCCCN1CC(=O)N(C)[C@@H](CC(C)C)C(=O)N[C@@H](CC(C)C)C(=O)N(C)[C@@H](Cc2ccccc2)C(=O)N(C)[C@@H](C)C(=O)N[C@H](C(=O)N2CCCCC2)CC(=O)N[C@H](C(C)C)C(=O)N(C)[C@@H](Cc2ccccc2)C(=O)N[C@@H](CC(C)C)C(=O)N(C)[C@@H](CCN2CCC(F)(F)CC2)C(=O)N[C@@H]([C@@H](C)O)C1=O [pd394] ([dV][NMeF]L[X10]T[NBuGly][NMeL]L[NMeF][NMeA]D-Piperidide; lactam N-11),1.8

# Same assay, conditions: human, Caco-2, Caco-2 (cm/sec)
row,SMILES,Papp [×10⁻⁶ cm/s]
1,CCCN1CC(=O)N(C)[C@@H](Cc2ccccc2)C(=O)N(C)[C@@H](CC(C)C)C(=O)N[C@@H](COCC(C)(C)O)C(=O)N(C)[C@@H](CC(C)C)C(=O)N[C@H](C(=O)N2CCCCC2)CC(=O)N(C)CC(=O)N(C)[C@@H](Cc2ccccc2)C(=O)N[C@@H]([C@@H](C)CC)C(=O)N(C)[C@@H](CC(C)C)C(=O)N[C@@H]([C@@H](C)O)C1=O [AP08] ([Sar][NMeF]I[NMeL]T[NPrGly][NMeF][NMeL]S(CH2CMe2OH)[NMeL]D-Piperidide; lactam N-11),0.67
2,CC[C@H]1C(=O)N(C)[C@@H](Cc2ccccc2)C(=O)N[C@@H](CC(C)C)C(=O)N(C)[C@@H](CC(C)C)C(=O)N(C)[C@@H](CC(C)C)C(=O)N[C@@H](COC[C@@H]2COCCN2)C(=O)N(C)CC(=O)N(C)[C@@H](CC(C)C)C(=O)N[C@H](C(=O)N2CCCCC2)CC(=O)N(C)[C@@H](C)C(=O)N[C@@H](CC(C)C)C(=O)N1C [AP246] ([NMeA]L[NMeAbu][NMeF]L[NMeL][NMeL]S(X8)[Sar][NMeL]D-Piperidide; lactam N-11),0.23
3,"CNC(=O)c1ccc(CC[C@H]2NC(=O)[C@H](CC(C)C)N(C)C(=O)CN(C)C(=O)C([C@@H](C)O)NC(=O)[C@H](CC(C)C)N(C)C(=O)[C@H](CC(C)C)NC(=O)[C@H](Cc3ccccc3)N(C)C(=O)[C@@H](C(C)C)NC(=O)C[C@@H](C(=O)N3CCCCC3)NC(=O)[C@H](CC(C)C)N(C)C(=O)[C@H](CC(C)C)N(C)C2=O)cc1OC (stereo partly drawn) [AP208] ([dV][NMeF]L[NMeL][ξThr(3R)][Sar][NMeL][dhPhe(4-CONHMe,3-OMe)][NMeL][NMeL]D-Piperidide; lactam N-11)",0.6
4,CCCCN1CC(=O)N(C)[C@@H](Cc2ccccc2)C(=O)N(C)[C@@H](CC(C)C)C(=O)N[C@@H](C(C)C)C(=O)N(C)[C@@H](CC(C)C)C(=O)N[C@H](C(=O)N2CCCCC2)CC(=O)N(C)CC(=O)N(C)[C@@H](CC(C)C)C(=O)N[C@@H](COC[C@@H]2COCCN2)C(=O)N(C)[C@@H](CC(C)C)C(=O)N[C@@H]([C@@H](C)O)C1=O [AP244] ([Sar][NMeL]S(X8)[NMeL]T[NBuGly][NMeF][NMeL]V[NMeL]D-Piperidide; lactam N-11),0.46
5,CC(C)C[C@@H]1NC(=O)[C@H](Cc2ccccc2)N(C)C(=O)[C@H](CC(C)C)N(C)C(=O)CCN(C)C(=O)C[C@@H](C(=O)N2CCCCC2)NC(=O)[C@H](CC(C)C)N(C)C(=O)[C@H](Cc2ccccc2)N(C)C(=O)[C@H]([C@@H](C)O)NC(=O)[C@H](Cc2ccccc2)N(C)C1=O [pd207] ([NMeβAla][NMeL][NMeF]L[NMeF]T[NMeF][NMeL]D-Piperidide; lactam N-9),1.7
6,CC(C)C[C@H]1C(=O)N[C@@H](C(C)C)C(=O)N(C)[C@@H](CCc2ccccc2)C(=O)N(C)[C@@H](CCc2ccccc2)C(=O)N[C@@H](CCCCO)C(=O)N(C)[C@@H](CC(C)C)C(=O)N[C@@H]([C@@H](C)O)C(=O)N(C)[C@@H](CC(C)C)C(=O)N(C)[C@@H](CC(C)C)C(=O)N[C@H](C(=O)N2CCCCC2)CC(=O)N(C)CCCC(=O)N1C [Compound B04] ([NMeGABA][NMeL]V[NMehPhe][NMehPhe][X6][NMeL]T[NMeL][NMeL]D-Piperidide; lactam N-11),0.07
7,"CCCCN1CC(=O)N(C)[C@@H](CC(C)C)C(=O)N(C)[C@@H](CC(C)C)C(=O)N[C@@H](COC(C)(C)C)C(=O)N(C)[C@@H](CC(C)C)C(=O)N[C@H](C(=O)N2CCCCC2)CC(=O)N(C)CC(=O)N(C)[C@@H](Cc2cccc(Cl)c2)C(=O)N[C@@H](Cc2ccc(OC)c(C(=O)NC)c2)C(=O)N(C)[C@@H](CC(C)C)C(=O)N[C@@H]([C@@H](C)O)C1=O [AP41] ([Sar][NMePhe(3-Cl)][Phe(3-CONHMe,4-OMe)][NMeL]T[NBuGly][NMeL][NMeL]S(tBu)[NMeL]D-Piperidide; lactam N-11)",0.45
8,CC[C@H](C)[C@@H]1NC(=O)[C@H](CC(C)C)N(C)C(=O)CN(C)C(=O)C[C@@H](C(=O)N2CCCCC2)NC(=O)[C@H](CC(C)C)N(C)C(=O)[C@H](COC(C)(C)C)NC(=O)[C@H](CC(C)C)N(C)C(=O)[C@H](Cc2ccccc2)N(C)C(=O)CN(CCc2ccc(C(=O)NC)c(OC)c2)C(=O)[C@H]([C@@H](C)O)NC(=O)[C@H](CC)N(C)C1=O [AP218] ([Sar][NMeL]I[NMeAbu]T[X11][NMeF][NMeL]S(tBu)[NMeL]D-Piperidide; lactam N-11),0.55
9,"CC[C@H](C)[C@@H]1NC(=O)[C@H](CC(C)C)N(C)C(=O)CCCN(C)C(=O)C[C@@H](C(=O)N2CCCCC2)NC(=O)[C@H](CC(C)C)N(C)C(=O)[C@H](CC(C)C)N(C)C(=O)[C@H]([C@@H](C)O)NC(=O)[C@H](CC(C)C)N(C)C(=O)[C@H](Cc2ccc(OC)c(C(=O)NC)c2)NC(=O)[C@H](CC(C)C)N(C)C(=O)[C@H](Cc2ccccc2)N(C)C1=O [AP38] ([NMeGABA][NMeL]I[NMeF][NMeL][Phe(3-CONHMe,4-OMe)][NMeL]T[NMeL][NMeL]D-Piperidide; lactam N-11)",0.2
10,COc1cc(C[C@@H]2NC(=O)[C@H](CC(C)C)N(C)C(=O)CCCN(C)C(=O)C[C@@H](C(=O)N3CCCCC3)NC(=O)[C@H](CC(C)C)N(C)C(=O)[C@H](CC(C)C)N(C)C(=O)[C@H]([C@@H](C)O)NC(=O)[C@H](CC(C)C)N(C)C(=O)[C@H](COC(C)(C)C)NC(=O)[C@H](Cc3ccccc3)N(C)C(=O)[C@H](CC(C)C)N(C)C2=O)ccc1O [Compound E04] ([NMeGABA][NMeL][Tyr(3-OMe)][NMeL][NMeF]S(tBu)[NMeL]T[NMeL][NMeL]D-Piperidide; lactam N-11),0.4
11,CC[C@H](C)[C@H]1C(=O)N[C@@H](Cc2ccc(O)cc2)C(=O)N(C)CC(=O)N(C)[C@@H](CC(C)C)C(=O)N[C@H](C(=O)N2CCCCC2)CC(=O)N(C)[C@@H](C)C(=O)N[C@@H](CC(C)C)C(=O)N(C)[C@@H](C)C(=O)N(C)[C@@H](Cc2ccccc2)C(=O)N[C@@H](C(C)C)C(=O)N(C)[C@@H](C)C(=O)N1C [pd116] ([NMeA]L[NMeA][NMeF]V[NMeA][NMeI]Y[Sar][NMeL]D-Piperidide; lactam N-11),0.14
12,CC(C)C[C@@H]1NC(=O)[C@H](Cc2ccccc2)N(C)C(=O)[C@H](COC(C)(C)C)NC(=O)[C@H](Cc2ccccc2)N(C)C(=O)[C@H](C)N(C)C(=O)[C@H](CC(C)C)N(C)C(=O)[C@H](C)N(C)C(=O)C[C@@H](C(=O)N2CCCCC2)N(C)C(=O)[C@H](Cc2ccccc2)N(C)C(=O)[C@H]([C@@H](C)O)NC(=O)[C@H](C(C)C)N(C)C1=O [pd213] ([NMeA][NMeL][NMeA][NMeF]S(tBu)[NMeF]L[NMeV]T[NMeF][NMeD]-Piperidide; lactam N-11),1.3
13,CC[C@H]1C(=O)N[C@@H](CC(C)C)C(=O)N(C)[C@@H](CC(C)C)C(=O)N(C)[C@@H](Cc2ccccc2)C(=O)N[C@@H](Cc2ccc(O)c(OC)c2)C(=O)N(C)[C@@H](CC(C)C)C(=O)N(C)[C@@H](CC(C)C)C(=O)N[C@@H]([C@@H](C)O)C(=O)N(C)CC(=O)N(C)[C@@H](CC(C)C)C(=O)N[C@H](C(=O)N2CCCCC2)CC(=O)N1C [Compound E05] ([NMeAbu]L[NMeL][NMeF][Tyr(3-OMe)][NMeL][NMeL]T[Sar][NMeL]D-Piperidide; lactam N-11),1.8
14,CC(C)C[C@@H]1NC(=O)[C@H](CCc2ccccc2)N(C)C(=O)[C@@H](C(C)C)NC(=O)C[C@@H](C(=O)N2CCCCC2)NC(=O)[C@H](CC(C)C)N(C)C(=O)[C@H](Cc2cccc(Cl)c2)N(C)C(=O)[C@H](COCCO)NC(=O)[C@H](CC(C)C)N(C)C(=O)CN(C)C(=O)[C@H]([C@@H](C)O)NC(=O)[C@H](CC(C)C)N(C)C1=O [Compound A02] ([dV][NMehPhe]L[NMeL]T[Sar][NMeL]S(Ethyl(2-OH))[NMePhe(3-Cl)][NMeL]D-Piperidide; lactam N-11),0.45
15,CCCCN1CC(=O)N(C)[C@@H](Cc2ccccc2)C(=O)N[C@@H](COCCCO)C(=O)N(C)[C@@H](CC(C)C)C(=O)N[C@@H]([C@@H](C)O)C(=O)N(CCCC)CC(=O)N(C)[C@@H](Cc2ccccc2)C(=O)N(C)[C@@H](C(C)C)C(=O)N[C@@H](COC(C)(C)C)C(=O)N(C)[C@@H](CC(C)C)C(=O)N[C@H](C(=O)N2CCCCC2)CC1=O [AP95] ([NBuGly][NMeF]S(Propyl(3-OH))[NMeL]T[NBuGly][NMeF][NMeV]S(tBu)[NMeL]D-Piperidide; lactam N-11),0.69
